# What was measured:
# HCT116 = assay: Proliferation assay HCT116; type: cell-based; details: Homo sapiens, HCT-116, 96 h; HCT116, colon/rectum carcinoma; 4 days, crystal violet
# Method: (§1) Cultivated human tumor cells (originally obtained from ATCC, HeLa-MaTu and HeLa-MaTu-ADR, originally obtained from Epo GmbH, Berlin, Germany) were plated at a density of 1000 to 5000 cells/measuring point, depending on the growth rate of the cell line, in a 96-well multititer plate in 200 μl of growth medium (DMEM/HAMS F12, 2 mM L-glutamine, 10% fetal calf serum). After 24 hours the cells of one plate (zero-point plate) were stained with crystal violet (see below), whereas the medium of the other plates was replaced with fresh culture medium (200 μl), to which the test substances had been added at various concentrations (0 μM, and in the range 0.01-30 μM; the final concentration of the solvent dimethyl sulfoxide was 0.5%). The cells were incubated for 4 days in the presence of the test substances. Cellular proliferation was determined by staining the cells with crystal violet: the cells were fixed by adding 20 μl/measuring point of an 11% glutaraldehyde solution for 15 min at room temperature. After washing the fixed cells with water three times, the plates were dried at room temperature. The cells were stained by adding 100 μl/measuring point of a 0.1% crystal violet solution (pH adjusted to pH3 by adding acetic acid). After washing the stained cells with water three times, the plates were dried at room temperature. The dye was dissolved by adding 100 μl/measuring point of a 10% acetic acid solution. The extinction was determined photometrically at a wavelength of 595 nm. The percentage change in cell growth was calculated by standardization of the measured values to the extinction values of the zero-point plate (=0%) and the extinction of the untreated (0 μM) cells (=100%). The measured data were standardized to 0% inhibition (cell proliferation without inhibitor) and 100% inhibition (zero-point plate). The IC50 values were determined by means of a 4-parameter fit using the company's own software.
# (§2) The substances were examined in the following cell lines which, in an exemplary manner, represent the stated indications: […]
# [1] = molecular target: T1, VEGF receptor tyrosine kinase-2 (VEGF-R2) (Homo sapiens, UniProt P35968); assay: VEGF receptor-2 kinase assay (Assay 3); type: biochemical; details: 8 μM ATP, poly-(Glu4Tyr), 10 min 22° C.; read-out: VEGF-R2 (Assay 3) Concentration for half-maximal inhibition of the enzyme activity, IC50
# T1 construct: GST; made in house; host or cells: baculovirus-infected insect cells (Sf9)
# T1 sequence (P35968 20-1356, species assumed): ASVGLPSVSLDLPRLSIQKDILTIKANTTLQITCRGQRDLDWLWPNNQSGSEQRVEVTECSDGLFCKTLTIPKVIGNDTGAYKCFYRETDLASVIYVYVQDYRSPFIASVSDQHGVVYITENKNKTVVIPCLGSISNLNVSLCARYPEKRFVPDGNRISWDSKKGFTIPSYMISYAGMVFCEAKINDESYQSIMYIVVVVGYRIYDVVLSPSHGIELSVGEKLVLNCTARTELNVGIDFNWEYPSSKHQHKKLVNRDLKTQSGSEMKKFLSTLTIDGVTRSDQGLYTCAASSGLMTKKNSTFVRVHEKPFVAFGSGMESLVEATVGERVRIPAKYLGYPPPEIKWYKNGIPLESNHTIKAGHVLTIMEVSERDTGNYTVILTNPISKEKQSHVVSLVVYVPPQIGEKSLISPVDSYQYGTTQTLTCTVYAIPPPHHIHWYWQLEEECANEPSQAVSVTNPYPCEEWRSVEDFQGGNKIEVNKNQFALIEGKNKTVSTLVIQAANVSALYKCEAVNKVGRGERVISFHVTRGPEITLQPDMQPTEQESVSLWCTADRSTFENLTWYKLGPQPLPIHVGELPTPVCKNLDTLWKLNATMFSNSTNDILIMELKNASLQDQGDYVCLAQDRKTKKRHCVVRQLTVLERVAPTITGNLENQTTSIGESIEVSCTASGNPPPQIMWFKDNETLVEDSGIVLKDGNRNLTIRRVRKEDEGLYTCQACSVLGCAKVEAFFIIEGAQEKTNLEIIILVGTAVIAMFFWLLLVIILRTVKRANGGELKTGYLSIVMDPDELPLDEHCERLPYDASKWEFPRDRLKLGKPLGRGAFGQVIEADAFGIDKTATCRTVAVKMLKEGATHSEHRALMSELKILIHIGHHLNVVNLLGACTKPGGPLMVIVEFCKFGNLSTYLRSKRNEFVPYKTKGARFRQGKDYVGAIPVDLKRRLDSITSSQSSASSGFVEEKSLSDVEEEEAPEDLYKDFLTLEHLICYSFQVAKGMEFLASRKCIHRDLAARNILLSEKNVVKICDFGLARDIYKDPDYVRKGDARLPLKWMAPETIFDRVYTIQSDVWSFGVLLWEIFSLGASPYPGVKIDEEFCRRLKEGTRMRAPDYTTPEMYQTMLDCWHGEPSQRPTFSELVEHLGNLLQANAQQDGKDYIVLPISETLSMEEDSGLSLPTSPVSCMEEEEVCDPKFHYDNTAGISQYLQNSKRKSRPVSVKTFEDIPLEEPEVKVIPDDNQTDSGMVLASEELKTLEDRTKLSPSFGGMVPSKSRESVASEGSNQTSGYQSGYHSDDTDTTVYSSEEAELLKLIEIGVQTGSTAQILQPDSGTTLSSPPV
# Method: Recombinant VEGF receptor tyrosine kinase-2 was purified as GST fusion protein from baculovirus-infected insect cells (Sf9). Poly-(Glu4Tyr), used as kinase substrate, was purchased from Sigma.
# VEGF receptor tyrosine kinase (90 ng/measuring point) was incubated for 10 min at 22° C. in the presence of various concentrations of test substances (0 μM, and within the range 0.001-30 μM) in 30 μl assay buffer [40 mM Tris/HCl pH5.5, 10 mM MgCl2, 1 mM MnCl2, 3 μM Na ortho-vanadate, 1.0 mM dithiothreitol, 8 μM adenosine triphosphate (ATP), 0.96 μg/measuring point poly-(Glu4Tyr), 0.2 μCi/measuring point ^33P-gamma ATP, 1.4% dimethyl sulfoxide]. The reaction was stopped by adding EDTA solution (250 mM, pH 8.0, 15 μl/measuring point).
# From each reaction mixture, 15 μl was applied to P30 filter strips (from Wallac), and unincorporated ^33P-ATP was removed by washing the filter strips three times, for 10 min each time, in 0.5% phosphoric acid. After drying the filter strips for 1 hour at 70° C., the filter strips were covered with scintillator strips (MeltiLex™ A, from Wallac) and stoved for 1 hour at 90° C. The amount of incorporated ^33P (substrate phosphorylation) was determined by scintillation measurement in a gamma-radiation measuring instrument (Wallac). The measured data were standardized to 0% inhibition (enzyme reaction without inhibitor) and 100% inhibition (all assay components except enzyme). The IC50 values were determined by means of a 4-parameter fit using the company's own software.
# MOLM-13 = assay: Proliferation assay MOLM-13; type: cell-based; details: Homo sapiens, 96 h; MOLM-13, leukemia; 4 days, crystal violet
# Method: as §1, with “After washing the fixed cells with water three times, the plates were dried at room temperature. The cells were stained by adding 100 μl/measuring point of a 0.1% crystal violet solution (pH adjusted to pH3 by adding acetic acid). After washing the stained cells with water three times, the plates were dried at room temperature. The dye was dissolved by adding 100 μl/measuring point of a 10% acetic acid solution.” left out, “The measured data were standardized to 0% inhibition (cell proliferation without inhibitor) and 100% inhibition (zero-point plate).” left out, “software. […]” for “software.”
# SK-BR-3 = assay: Proliferation assay SK-BR-3; type: cell-based; details: Homo sapiens, 96 h; SK-BR-3, estrogen receptor-negative mamma carcinoma; 4 days, crystal violet
# Method: as §1, §2
# MCF7 = assay: Proliferation assay MCF7; type: cell-based, human; details: MCF7, estrogen receptor-positive mamma carcinoma; 4 days, crystal violet
# Method: as §1, §2
# NCI-H460 = assay: Proliferation assay NCI-H460; type: cell-based, human; details: NCI-H460, non-small-cell bronchial carcinoma; 4 days, crystal violet
# Method: as §1, §2
# NCI-ADR-Res = assay: Proliferation assay NCI-ADR-Res; type: cell-based; details: Homo sapiens, 96 h, ovarial carcinoma, 4 days, crystal violet
# Method: as §1, §2
# A375 = assay: Proliferation assay A375; type: cell-based; details: Homo sapiens, A-375, 96 h; A375, skin: melanoma; 4 days, crystal violet
# Method: as §1, with “After washing the fixed cells with water three times, the plates were dried at room temperature. The cells were stained by adding 100 μl/measuring point of a 0.1% crystal violet solution (pH adjusted to pH3 by adding acetic acid). After washing the stained cells with water three times, the plates were dried at room temperature. The dye was dissolved by adding 100 μl/measuring point of a 10% acetic acid solution.” left out, “The measured data were standardized to 0% inhibition (cell proliferation without inhibitor) and 100% inhibition (zero-point plate).” left out, “software. […]” for “software.”
# A431 = assay: Proliferation assay A431; type: cell-based; details: Homo sapiens, A-431, 96 h; A431, skin: epidermis; 4 days, crystal violet
# Method: as §1, §2
# HeLa-MaTu = assay: Proliferation assay HeLa-MaTu; type: cell-based, human; details: cervix carcinoma, 4 days, crystal violet
# Method: as §1, §2
# MDA-MB 453 = assay: Proliferation assay MDA-MB 453; type: cell-based; details: Homo sapiens, 96 h; MDA-MB 453, estrogen receptor-negative mamma carcinoma; 4 days, crystal violet
# Method: as §1, §2
# MIA PaCa-2 = assay: Proliferation assay MIA PaCa-2; type: cell-based; details: Homo sapiens, 96 h; MIA PaCa-2, pancreas carcinoma; 4 days, crystal violet
# Method: as §1, §2
# HeLa-MaTu-ADR = assay: Proliferation assay HeLa-MaTu-ADR; type: cell-based, human; details: cervix carcinoma, 4 days, crystal violet
# Method: as §1, §2
# HT29 = assay: Proliferation assay HT29; type: cell-based; details: Homo sapiens, HT-29, 96 h; HT29, colon/rectum carcinoma; 4 days, crystal violet
# Method: as §1, §2
# SW480 = assay: Proliferation assay SW480; type: cell-based; details: Homo sapiens, 96 h; SW480, colon/rectum carcinoma; 4 days, crystal violet
# Method: as §1, §2
# HeLa = assay: Proliferation assay HeLa; type: cell-based; details: Homo sapiens, 96 h, cervix carcinoma, 4 days, crystal violet
# Method: as §1, §2
# Caco-2 = assay: Proliferation assay Caco-2; type: cell-based, human; details: Caco-2, colon/rectum carcinoma; 4 days, crystal violet
# Method: as §1, §2
# MDA-MB 231 = assay: Proliferation assay MDA-MB 231; type: cell-based; details: Homo sapiens, 96 h; MDA-MB 231, estrogen receptor-negative mamma carcinoma; 4 days, crystal violet
# Method: as §1, with “After washing the fixed cells with water three times, the plates were dried at room temperature. The cells were stained by adding 100 μl/measuring point of a 0.1% crystal violet solution (pH adjusted to pH3 by adding acetic acid). After washing the stained cells with water three times, the plates were dried at room temperature. The dye was dissolved by adding 100 μl/measuring point of a 10% acetic acid solution.” left out, “The measured data were standardized to 0% inhibition (cell proliferation without inhibitor) and 100% inhibition (zero-point plate).” left out, “software. […]” for “software.”
# DU145 = assay: Proliferation assay DU145; type: cell-based, human; details: DU145, prostate carcinoma; 4 days, crystal violet
# Method: as §1, §2
# NCI-H69 = assay: Proliferation assay NCI-H69; type: cell-based; details: Homo sapiens, 96 h; NCI-H69, small-cell bronchial carcinoma; 4 days, crystal violet
# Method: as §1, with “After washing the fixed cells with water three times, the plates were dried at room temperature. The cells were stained by adding 100 μl/measuring point of a 0.1% crystal violet solution (pH adjusted to pH3 by adding acetic acid). After washing the stained cells with water three times, the plates were dried at room temperature. The dye was dissolved by adding 100 μl/measuring point of a 10% acetic acid solution.” left out, “The measured data were standardized to 0% inhibition (cell proliferation without inhibitor) and 100% inhibition (zero-point plate).” left out, “software. […]” for “software.”
# H1975 = assay: Proliferation assay H1975; type: cell-based; details: Homo sapiens, NCI-H1975, 96 h; H1975, non-small-cell bronchial carcinoma; 4 days, crystal violet
# Method: as §1, §2
# PC3 = assay: Proliferation assay PC3; type: cell-based; details: Homo sapiens, PC-3, 96 h; PC3, prostate carcinoma; 4 days, crystal violet
# Method: as §1, §2
# 786-O = assay: Proliferation assay 786-O; type: cell-based; details: Homo sapiens, 786-0, 96 h, kidney carcinoma, 4 days, crystal violet
# Method: as §1, §2
# Caki2 = assay: Proliferation assay Caki2; type: cell-based; details: Homo sapiens, CAKI-2, 96 h; Caki2, kidney carcinoma; 4 days, crystal violet
# Method: as §1, §2
# A549 = assay: Proliferation assay A549; type: cell-based; details: Homo sapiens, 96 h; A549, non-small-cell bronchial carcinoma; 4 days, crystal violet
# Method: as §1, §2
# OVCAR-8 = assay: Proliferation assay OVCAR-8; type: cell-based; details: Homo sapiens, 96 h; OVCAR-8, ovarial carcinoma; 4 days, crystal violet
# Method: as §1, with “After washing the fixed cells with water three times, the plates were dried at room temperature. The cells were stained by adding 100 μl/measuring point of a 0.1% crystal violet solution (pH adjusted to pH3 by adding acetic acid). After washing the stained cells with water three times, the plates were dried at room temperature. The dye was dissolved by adding 100 μl/measuring point of a 10% acetic acid solution.” left out, “The measured data were standardized to 0% inhibition (cell proliferation without inhibitor) and 100% inhibition (zero-point plate).” left out, “software. […]” for “software.”
smiles,measurement,setting,value
"C[C@@H](O)[C@@H](C)Oc1nc(Nc2ccc(S(=N)(=O)C3CC3)cc2)ncc1C(F)(F)F (mixture of isomers) [Example 1-SI-2, (RS)—S-Cyclopropyl-S-(4-{[4-{[(1R,2R)-2-hydroxy-1-methylpropyl]oxy}-5-(trifluoromethyl)-pyrimidin-2-yl]amino}phenyl)sulfoximide]",IC50,HCT116,18 nM
same,IC50,[1],163 nM
same,IC50,MOLM-13,14 nM
same,IC50,SK-BR-3,13 nM
same,IC50,MCF7,15 nM
same,IC50,NCI-H460,12 nM
same,IC50,NCI-ADR-Res,33 nM
same,IC50,A375,14 nM
same,IC50,A431,14 nM
same,IC50,HeLa-MaTu,11 nM
same,IC50,MDA-MB 453,15 nM
same,IC50,MIA PaCa-2,21 nM
same,IC50,HeLa-MaTu-ADR,8 nM
same,IC50,HT29,29 nM
same,IC50,SW480,15 nM
same,IC50,HeLa,12 nM
same,IC50,Caco-2,16 nM
same,IC50,MDA-MB 231,18 nM
same,IC50,DU145,8 nM
same,IC50,NCI-H69,37 nM
same,IC50,H1975,11 nM
same,IC50,PC3,25 nM
same,IC50,786-O,20 nM
same,IC50,Caki2,26 nM
same,IC50,A549,20 nM
same,IC50,OVCAR-8,12 nM

# Reference: US20130210846A1, “USE OF NOVEL PAN-CDK INHIBITORS FOR TREATING TUMORS” (BAYER INTELLECTUAL PROPERTY GMBH, priority 2010, published 2013)
